# Measurements from PMC4496826, “Nanostructured lipid carriers for percutaneous administration of alkaloids isolated from Aconitum sinomontanum” (Journal of Nanobiotechnology, 2015).
# Structures can show the parent of a compound that is named as a salt.
# How the values were obtained:
# CCC-ESF cells = format: cell-based, human; conditions: 30 min pre-incubation with inhibitor, vs. control
# Procedure: (§1) Endocytosis mechanisms were assessed using cellular uptake assays in the presence of chemicals known to inhibit specific endocytosis pathways. Cells were incubated with CPZ, FLP, GNT, CCD, DMA, NaN3, or MS (at […], respectively) for 30 min at 37°C. After exposure to these inhibitors, 200 µL of C6-labeled NLCs was added to each well and incubated for 30 min. After the incubation, cells were prepared for flow cytometry as described earlier and the data for at least 20,000 cells were acquired. The cells treated with C6-labeled NLCs alone were considered as the control cells.
# mice = tested on: mice; parameters: method as in ref 5 = [5]; 5. Guan YZ Shi YB Wang H Summary on the advanced research of lappaconite hydrobromide Theory Pr Chin Med 2005 15 1838 1840; conditions: cited from earlier work
# rats = tested on: rats; parameters: method as in ref 5 = [5]; 5. Guan YZ Shi YB Wang H Summary on the advanced research of lappaconite hydrobromide Theory Pr Chin Med 2005 15 1838 1840; conditions: cited from earlier work
# [1] = parameters: method as in ref 6 = [6]; 6. Liang ZF Lyu YP Yuan W Liu YL Zhu XC Dose-effect relationship of lappaconitine Chin Pharmacol Bull 1993 9 146; conditions: per os; cited from earlier work
# [2] = Aqueous solubility in the release medium; format: physicochemical; conditions: normal saline containing 20% PEG 400
# HaCaT cells = test: Endocytic pathway: uptake of C6-labeled NLCs in presence of endocytosis inhibitors; format: cell-based, human; conditions: 30 min pre-incubation with inhibitor, vs. control
# Procedure: as §1
Compound,effect on internalization/uptake of C6-labeled NLCs (CCC-ESF cells),further results
"CN(C)c1nc(N)c(C(=O)NC(=N)N)nc1Cl [DMA, 5-(N,N-dimethyl)-amiloride hydrochloride]",did not significantly affect,
"CN(C)CCCN1c2ccccc2Sc2ccc(Cl)cc21 [CPZ, chlorpromazine]",did not significantly affect,
"O=c1c(-c2ccc(O)cc2)coc2cc(O)cc(O)c12 [GNT, genistein]",did not significantly affect,
"CCN1C[C@]2(OC(=O)c3ccccc3NC(C)=O)CC[C@H](OC)[C@@]34[C@@H]2C[C@@H]([C@@H]13)[C@@]1(O)C[C@H](OC)[C@H]2C[C@@H]4[C@]1(O)[C@H]2OC [LA, lappaconitine]",,oral LD50 (mice): 32.4 mg/kg; oral LD50 (rats): 20 mg/kg; certain safety factor (CSF) [1]: 1.01; standard safety margin (SSM) [1]: 1.0%; aqueous solubility in the medium [2]: 849.79 ± 36.95 µg/mL
"CCN1C[C@]2(OC(=O)c3ccccc3NC(C)=O)CC[C@H](OC)C34C1C(O)(C[C@@H]32)[C@@]1(O)C[C@H](OC)[C@H]2C[C@@H]4[C@]1(O)[C@H]2OC [RAN, ranaconitine]",,aqueous solubility in the medium [2]: 582.06 ± 16.27 µg/mL
"CCCCC[C@@H](O)[C@H]1C(=O)O[C@H](C)[C@@H](O)/C=C/C=C/C=C/C=C/C=C(\C)[C@@H](O)C[C@H](O)C[C@H](O)C[C@H](O)C[C@H](O)C[C@H](O)C[C@@H]1O [FLP, filipin III]",significantly inhibited,effect on uptake of C6-labeled NLCs (average fluorescence intensity) (HaCaT cells): significantly reduced
"C=C1[C@@H](C)[C@H]2[C@H](Cc3ccccc3)NC(=O)[C@]23[C@H](OC(C)=O)/C=C/[C@@](C)(O)C(=O)[C@@H](C)C/C=C/[C@H]3[C@@H]1O [CCD, cytochalasin D]",significantly inhibited,
"[N-]=[N+]=[N-].[Na+] [NaN3, sodium azide]",did not significantly affect,
monensin sodium [MS],did not significantly affect,
